According to the NIST ThermoML archive (doi:10.1016/j.fluid.2007.04.009):
± gives the expanded uncertainty stated by the source.

Key:
[1] = 298.15 K; for surface tension liquid-gas: Pendant drop shape; for mass density: 101.33 kPa, Liquid
[2] = refractive index (Na D-line) (dimensionless); settings: 298.15 K; 101.33 kPa; Liquid; Standard Abbe refractometry
[3] = xn = mol fraction of the nth substance listed; settings: 298.15 K; for surface tension liquid-gas: Pendant drop shape; for mass density: 101.3 kPa, Liquid

CCOC(C)(C)C [2-ethoxy-2-methylpropane]
Settings	mass density [kg/m3]	refractive index	surface tension liquid-gas [mN/m]
[1]	735.44 ± 0.35	–	19.73 ± 0.23
[2]	–	1.37319 ± 0.00072	–

CCOC(C)(C)C [2-ethoxy-2-methylpropane] + CCCO
[3]
Settings	mass density [kg/m3]	surface tension liquid-gas [mN/m]
x1 = 0.0572	795.04 ± 0.27	–
x1 = 0.067	–	23.58 ± 0.26
x1 = 0.1043	791.43 ± 0.27	–
x1 = 0.171	–	22.81 ± 0.25
x1 = 0.1752	786.11 ± 0.28	–
x1 = 0.2085	783.67 ± 0.27	–
x1 = 0.27	779.29 ± 0.28	–
x1 = 0.315	–	22.12 ± 0.25
x1 = 0.3317	775.03 ± 0.28	–
x1 = 0.3732	772.24 ± 0.28	–
x1 = 0.412	–	21.48 ± 0.24
x1 = 0.4205	769.2 ± 0.28	–
x1 = 0.4756	765.72 ± 0.28	–
x1 = 0.5326	762.15 ± 0.28	–
x1 = 0.5639	760.27 ± 0.28	–
x1 = 0.579	–	20.81 ± 0.24
x1 = 0.621	756.93 ± 0.28	–
x1 = 0.682	753.59 ± 0.28	–
x1 = 0.7188	751.55 ± 0.28	–
x1 = 0.7551	749.37 ± 0.28	–
x1 = 0.763	–	20.25 ± 0.23
x1 = 0.8334	745.06 ± 0.29	–
x1 = 0.8737	742.66 ± 0.29	–
x1 = 0.9142	740.45 ± 0.29	–
x1 = 0.9567	737.98 ± 0.29	–

CCCO [propan-1-ol]
Settings	mass density [kg/m3]	refractive index	surface tension liquid-gas [mN/m]
[1]	799.49 ± 0.29	–	23.89 ± 0.26
[2]	–	1.38333 ± 0.00072	–
